From ChEMBL document CHEMBL3045446, “In vitro antimicrobial and antimycobacterial activity of some chalcones and their derivatives” (2013)
Converted amounts (≈) assume the structure as drawn.

Columns and labels:
Format in all cases: functional
Aspergillus niger [1] = test: Antimicrobial activity against Aspergillus niger MTCC 282 assessed as diameter of growth inhibition zone after 48 hr
Bacillus cereus [2] = test: Antimicrobial activity against Bacillus cereus MTCC 430 assessed as diameter of growth inhibition zone after 24 hr
Candida albicans [3] = test: Antimicrobial activity against Candida albicans MTCC 183 assessed as growth inhibition after 48 hr by agar streak dilution method; conditions: MTCC 183, 48 h
Staphylococcus aureus [4] = test: Antimicrobial activity against Staphylococcus aureus MTCC 96 assessed as diameter of growth inhibition zone after 24 hr
Escherichia coli [5] = test: Antimicrobial activity against Escherichia coli MTCC 739 assessed as growth inhibition after 24 hr by agar streak dilution method; conditions: MTCC 739, 24 h
Klebsiella pneumoniae [6] = test: Antimicrobial activity against Klebsiella pneumoniae MTCC 109 assessed as diameter of growth inhibition zone after 24 hr
Shigella flexneri [7] = test: Antimicrobial activity against Shigella flexneri MTCC1457 assessed as diameter of growth inhibition zone after 24 hr
[8] = system: Mycobacterium tuberculosis; test: Antituberculosis activity against Mycobacterium tuberculosis H37Rv assessed as growth inhibition after 12 to 28 days by L-J MIC method; conditions: for MIC: Mycobacterium tuberculosis, H37Rv
Aspergillus clavatus [9] = test: Antimicrobial activity against Aspergillus clavatus MTCC 1323 assessed as growth inhibition after 48 hr by agar streak dilution method; conditions: MTCC 1323, 48 h
Pseudomonas aeruginosa [10] = test: Antimicrobial activity against Pseudomonas aeruginosa MTCC 741 assessed as growth inhibition after 24 hr by agar streak dilution method; conditions: MTCC 741, 24 h
Proteus vulgaris [11] = test: Antimicrobial activity against Proteus vulgaris MTCC 1771 assessed as diameter of growth inhibition zone after 24 hr
Proteus vulgaris [12] = test: Antimicrobial activity against Proteus vulgaris MTCC 1771 assessed as growth inhibition after 24 hr by agar streak dilution method; conditions: MTCC 1771, 24 h
Salmonella typhi [13] = test: Antimicrobial activity against Salmonella enterica subsp. enterica serovar Typhi MTCC 733 assessed as diameter of growth inhibition zone after 24 hr
Pseudomonas aeruginosa [14] = test: Antimicrobial activity against Pseudomonas aeruginosa MTCC 741 assessed as diameter of growth inhibition zone after 24 hr
Staphylococcus aureus [15] = test: Antimicrobial activity against Staphylococcus aureus MTCC 96 assessed as growth inhibition after 24 hr by agar streak dilution method; conditions: MTCC 96, 24 h
Aspergillus clavatus [16] = test: Antimicrobial activity against Aspergillus clavatus MTCC 1323 assessed as diameter of growth inhibition zone after 48 hr
Candida albicans [17] = test: Antimicrobial activity against Candida albicans MTCC 183 assessed as diameter of growth inhibition zone after 48 hr
Escherichia coli [18] = test: Antimicrobial activity against Escherichia coli MTCC 739 assessed as diameter of growth inhibition zone after 24 hr
Aspergillus fumigatus [19] = test: Antimicrobial activity against Aspergillus fumigatus MTCC 343 assessed as growth inhibition after 48 hr by agar streak dilution method; conditions: MTCC 343, 48 h
Shigella flexneri [20] = test: Antimicrobial activity against Shigella flexneri MTCC1457 assessed as growth inhibition after 24 hr by agar streak dilution method; conditions: MTCC1457, 24 h
Salmonella typhi [21] = test: Antimicrobial activity against Salmonella enterica subsp. enterica serovar Typhi MTCC 733 assessed as growth inhibition after 24 hr by agar streak dilution method; conditions: MTCC 733, 24 h
Klebsiella pneumoniae [22] = test: Antimicrobial activity against Klebsiella pneumoniae MTCC 109 assessed as growth inhibition after 24 hr by agar streak dilution method; conditions: MTCC 109, 24 h
Bacillus cereus [23] = test: Antimicrobial activity against Bacillus cereus MTCC 430 assessed as growth inhibition after 24 hr by agar streak dilution method; conditions: MTCC 430, 24 h
Aspergillus fumigatus [24] = test: Antimicrobial activity against Aspergillus fumigatus MTCC 343 assessed as diameter of growth inhibition zone after 48 hr
Aspergillus niger [25] = test: Antimicrobial activity against Aspergillus niger MTCC 282 assessed as growth inhibition after 48 hr by agar streak dilution method; conditions: MTCC 282, 48 h

Row | Structure (SMILES) | diameter of the inhibition zone (DIZ) (Aspergillus niger [1]) [mm] | diameter of the inhibition zone (DIZ) (Bacillus cereus [2]) [mm] | MIC (Candida albicans [3]) [µg/mL] | diameter of the inhibition zone (DIZ) (Staphylococcus aureus [4]) [mm] | diameter of the inhibition zone (DIZ) (Klebsiella pneumoniae [6]) [mm] | diameter of the inhibition zone (DIZ) (Shigella flexneri [7]) [mm] | growth inhibition (GI) [8] [%] | MIC [8] [µg/mL] | MIC (Aspergillus clavatus [9]) [µg/mL] | MIC (Pseudomonas aeruginosa [10]) [µg/mL] | diameter of the inhibition zone (DIZ) (Proteus vulgaris [11]) [mm] | MIC (Proteus vulgaris [12]) [µg/mL] | diameter of the inhibition zone (DIZ) (Salmonella typhi [13]) [mm] | diameter of the inhibition zone (DIZ) (Pseudomonas aeruginosa [14]) [mm] | MIC (Staphylococcus aureus [15]) [µg/mL] | diameter of the inhibition zone (DIZ) (Aspergillus clavatus [16]) [mm] | diameter of the inhibition zone (DIZ) (Candida albicans [17]) [mm] | diameter of the inhibition zone (DIZ) (Escherichia coli [18]) [mm] | MIC (Aspergillus fumigatus [19]) [µg/mL] | MIC (Shigella flexneri [20]) [µg/mL] | other results
1 | COc1ccc(-c2cc(-c3ccc(Nc4cc(=O)oc5ccccc45)cc3)nc(N)n2)cc1OC | 27 | 20 | 6.25 (≈ 13.4 µM) | 27 | 23 | 24 | 98 | 50 (≈ 107 µM) | 12.5 (≈ 26.8 µM) | 12.5 (≈ 26.8 µM) | 21 | 25 (≈ 53.6 µM) | 22 | 23 | 6.25 (≈ 13.4 µM) | 23 | 26 | 25 | 12.5 (≈ 26.8 µM) | 12.5 (≈ 26.8 µM) | MIC (Escherichia coli [5]): 6.25 µg/mL (≈ 13.4 µM); MIC (Salmonella typhi [21]): 12.5 µg/mL (≈ 26.8 µM); MIC (Klebsiella pneumoniae [22]): 12.5 µg/mL (≈ 26.8 µM); MIC (Bacillus cereus [23]): 12.5 µg/mL (≈ 26.8 µM); diameter of the inhibition zone (DIZ) (Aspergillus fumigatus [24]): 25 mm; MIC (Aspergillus niger [25]): 6.25 µg/mL (≈ 13.4 µM)
2 | COc1ccc(-c2cc(-c3ccc(Nc4cc(=O)oc5ccccc45)cc3)nc(N)c2C#N)cc1 | 25 | 27 | 12.5 (≈ 27.1 µM) | 27 | 22 | 24 | 96 | 62.5 (≈ 136 µM) | 6.25 (≈ 13.6 µM) | 6.25 (≈ 13.6 µM) | 26 | 6.25 (≈ 13.6 µM) | 22 | 25 | 6.25 (≈ 13.6 µM) | 25 | 25 | 28 | 12.5 (≈ 27.1 µM) | 12.5 (≈ 27.1 µM) | MIC (Escherichia coli [5]): 3.12 µg/mL (≈ 6.78 µM); MIC (Salmonella typhi [21]): 12.5 µg/mL (≈ 27.1 µM); MIC (Klebsiella pneumoniae [22]): 12.5 µg/mL (≈ 27.1 µM); MIC (Bacillus cereus [23]): 6.25 µg/mL (≈ 13.6 µM); diameter of the inhibition zone (DIZ) (Aspergillus fumigatus [24]): 21 mm; MIC (Aspergillus niger [25]): 12.5 µg/mL (≈ 27.1 µM)
3 | CC[C@@H](CO)NCCN[C@@H](CC)CO [ETHAMBUTOL] | – | – | – | – | – | – | 99 | 3.12 (≈ 15.3 µM) | – | – | – | – | – | – | – | – | – | – | – | – | –
4 | O=C(O)c1cn(C2CC2)c2cc(N3CCNCC3)c(F)cc2c1=O [CIPROFLOXACIN] | – | 31 | – | 30 | 33 | 32 | – | – | – | 1 (≈ 3.02 µM) | 31 | 1 (≈ 3.02 µM) | 30 | 33 | 1 (≈ 3.02 µM) | – | – | 32 | – | ≤ 3 | MIC (Salmonella typhi [21]): 1 µg/mL (≈ 3.02 µM); MIC (Klebsiella pneumoniae [22]): 1 µg/mL (≈ 3.02 µM); MIC (Bacillus cereus [23]): 1 µg/mL (≈ 3.02 µM)
5 | NC(=O)c1cnccn1 [PYRAZINAMIDE] | – | – | – | – | – | – | 99 | 6.25 (≈ 50.8 µM) | – | – | – | – | – | – | – | – | – | – | – | – | –
6 | CO[C@H]1/C=C/O[C@@]2(C)Oc3c(C)c(O)c4c(O)c(c(/C=N/N5CCN(C)CC5)c(O)c4c3C2=O)NC(=O)/C(C)=C\C=C\[C@H](C)[C@H](O)[C@@H](C)[C@@H](O)[C@@H](C)[C@H](OC(C)=O)[C@@H]1C [RIFAMPIN] | – | – | – | – | – | – | 99 | 0.25 (≈ 0.304 µM) | – | – | – | – | – | – | – | – | – | – | – | – | –
7 | CC(=O)N1CCN(c2ccc(OCC3COC(Cn4ccnc4)(c4ccc(Cl)cc4Cl)O3)cc2)CC1 (stereo not drawn) [KETOCONAZOLE] | 30 | – | 1 (≈ 1.88 µM) | – | – | – | – | – | 1 (≈ 1.88 µM) | – | – | – | – | – | – | 31 | 33 | – | 1 (≈ 1.88 µM) | – | diameter of the inhibition zone (DIZ) (Aspergillus fumigatus [24]): 29 mm; MIC (Aspergillus niger [25]): ≤ 3 µg/mL
8 | NNC(=O)c1ccncc1 [ISONIAZID] | – | – | – | – | – | – | 99 | 0.2 (≈ 1.46 µM) | – | – | – | – | – | – | – | – | – | – | – | – | –
